Reference: patent US20220117921A1, “PHARMACEUTICAL COMBINATIONS FOR THE TREATMENT OF PAIN” (IMUNEKS FARMA ILAC SANAYI VE TICARET A.S., priority 2018, published 2022)

Tested on: female Albino Wistar rats
Experiment: Hot plate test (heat induced pain model)
Format: in vivo, rat
Settings: comparison between groups

CC(C(=O)O)c1ccc(-c2ccccc2)c(F)c1 (stereo not shown) [FBP, Flurbiprofen]
analgesic effect in the hot plate test (in words): lowest analgesic effect compared to all the other groups except the placebo group
